# According to patent publication US20180055844A1 (Celgene Corporation, priority 2011, published 2018):
# Experiments:
# HCT15 = experiment: Solid tumor cell colony formation; type: cell-based; settings: Homo sapiens, HCT-15
# T cells = experiment: Anti-CD3-stimulated human T cell assay, cytokine production; type: cell-based
# Description: T cells were isolated from buffy coat by negative selection using the RosetteSep® T Cell Enrichment Cocktail. The manufacturer's procedures were followed accordingly. All 96-well plates were pre-coated with 3 μg/ml anti-human CD3 antibody in 100 μl 1×PBS for 4 hours at 37° C. The plates were washed three times with RPMI-1640 Complete Media prior to the T cell assay. T cells were then plated in CD3 pre-coated plates at a density of 2.5×10^5 cells/well in 180 μl RPMI-1640 Complete Media. The cells were treated with 20 μl 10× titrated compounds at 10, 1, 0.1, 0.01, 0.001, 0.0001 and 0.00001 μM. Final DMSO concentrations were 0.25%. The plates were incubated for 48 hours at 37° C., 5% CO2. After 48 hours, the supernatants were harvested and tested by a multi-plex cytometric bead array (CBA) assay for the following cytokines/chemokines: IL-2, IL-3, IL-5, IL-10, IL-13, IL-15, IL-17a, GM-CSF, G-SCF, IFN-γ, TNF-α and RANTES. The CBA plates were analyzed on the Luminex IS100 instrument. […] All 96-well plates were pre-coated with 3 μg/mL anti-human CD3 antibody in 100 μL 1×PBS for 4 hours at 37° C. The plates were washed 3 times with RPMI-1640 Complete Media prior to the T cell assay. The T cells were then plated in anti-CD3-pre-coated plates at a density of 2.5×10^5 cells/well in 180 μL RPMI-1640 Complete Media. The cells were treated with 20 μL 10× titrated Celgene compounds at 10, 1, 0.1, 0.01, 0.001, 0.0001, and 0.00001 μM in duplicate. The final DMSO concentrations were 0.25%. The plates were incubated for 48 hours at 37° C., 5% CO2. After 48 hours, the supernatants were harvested and tested by a multiplex cytometric bead array (CBA) assay for the following cytokines/chemokines: IL-2, IL-3, IL-5, IL-10, IL-13, IL-15, IL-17A, GM-CSF, G-CSF, IFN-γ, TNF-α, and RANTES. The CBA plates were analyzed on the Luminex IS100 instrument.
smiles,measurement,setting,value
"Cc1nc2cccc(N)c2c(=O)n1C1CCC(=O)NC1=O (stereo not shown) [compound of Formula I, 3-(5-amino-2-methyl-4-oxo-4H-quinazolin-3-yl)-piperidine-2,6-dione]",inhibition at 10 µM,HCT15,3%
same,IL-5 production increase,T cells; 0.01 μM,3 fold
same,IL-5 production increase,T cells; 0.1 μM,4 fold
same,"production of IL-2, IL-3, IL-5, IL-10, IL-15, GM-CSF, INF-γ, RANTES, and TNF-α",T cells; 0.01 to 10 μM,enhanced
same,IL-10 production,T cells; 1 and 10 μM,inhibited
same,EC50,"T cells; Homo sapiens, T-cell, read-out: T cell IL-2 EC50",12 to 14 nM
same,IL-10 production enhancement,T cells; low concentrations (≦0.01 μM),2 fold
